Data taken from patent publication US6939566B2, “Microbicidal formulations and methods to control microorganisms” (priority 1999, dated 2005).

What was measured:
[1] = test system: E. coli, Stafelococus, Bascillus, and Salmonella; test: Bactericidal efficacy of diluted disinfectants on actively growing pathogenic bacteria; format: cell-based; settings: H2O2 absent; about 51 ppm complex silver
Method: Again, these prepared solutions were poured into dark bottles.
The above concludes the preparation of these disinfectants. However, to utilize these mixtures as bactericides, 5 ml of each bottled solution was added to 45 ml of double distilled-de-ionized water (10% by volume). […] The upper and lower concentration limits may be different if desired, depending on the nature of the desired application. For the samples where H2O2 is present, the active concentration of the disinfectant should be around 56,000 ppm.
The diluted solutions were then tested on several kinds of actively growing pathogenic bacteria to ascertain their effectiveness. Different strains of pathogenic bacteria were employed for the testing; namely, E. coli, Stafelococus, Bascillus, and Salmonella.

[2] = test system: freshly-cut roses; test: Preservation of cut flowers and plants; settings: examined after 15 days; silver approximately 166 ppb in tap water for the invention's sample
Method: A silver concentration of approximately 166 ppb was used. Both inoculated and controlled samples were tested in which freshly-cut roses were placed in the prepared solution and tap water, respectively. Cut roses were chosen because they are very susceptible to slight changes in the surrounding area and are equally susceptible to chemicals. For comparative purposes, other preservative type chemicals were also tested; namely, silver thiosulfate and hypochlorite.
In the case of the two other chemicals used, it was observed that there was discoloration of the petals, loss of leaves and petals, and dehydration.

Substance | order of potency among the amino acid complexes [1] | condition of cut roses [2]
Silver-Arginine Complex [Example 3] | most potency | 
Silver-glutamic Acid Complex [Example 1] |  | no black or brown burns on the petals and there were no wilted flowers, and the stems and leaves were in good condition
